Key:
[1] = tested on: Alopecurus myosuroides (ALOMY); test: Pre-emergence herbicidal activity, glasshouse pot test; format: in vivo; settings: Alopecurus myosuroides, 480 h, rate 500 g/ha, evaluated after 20 days, read-out: Pre-emergence activity, ALOMY (100=total damage to plant; 0=no damage to plant)
Summary of the method: (§1)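 One day after sowing in sterilised soil, pots receive an aqueous spray made from the compound dissolved in acetone and a formulation of emulsifier, N-methylpyrrolidone, glycol ether and X-77 wetter. Injury is assessed 20 days later against untreated expectations, scored from 0 (no damage) to 100.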

[2] = tested on: Avena fatua (AVEFA); test: as above; format: in vivo; settings: Avena fatua, 480 h, rate 500 g/ha, evaluated after 20 days, read-out: Pre-emergence activity, AVEFA (100=total damage to plant; 0=no damage to plant)
Summary of the method: as §1

[3] = tested on: Digitaria sanguinalis (DIGSA); test: as above; format: in vivo; settings: Digitaria sanguinalis, 480 h, rate 500 g/ha, evaluated after 20 days, read-out: Pre-emergence activity, DIGSA (100=total damage to plant; 0=no damage to plant)
Summary of the method: as §1

[4] = tested on: Echinochloa crus-galli (ECHCG); test: as above; format: in vivo; settings: Echinochloa crus-galli, 480 h, rate 500 g/ha, evaluated after 20 days, read-out: Pre-emergence activity, ECHCG (100=total damage to plant; 0=no damage to plant)
Summary of the method: as §1

[5] = tested on: Lolium perenne (LOLPE); test: as above; format: in vivo; settings: Lolium perenne, 480 h, rate 500 g/ha, evaluated after 20 days, read-out: Pre-emergence activity, LOLPE (100=total damage to plant; 0=no damage to plant)
Summary of the method: as §1

[6] = tested on: Setaria faberi (SETFA); test: as above; format: in vivo; settings: Setaria faberi, 480 h, rate 500 g/ha, evaluated after 20 days, read-out: Pre-emergence activity, SETFA (100=total damage to plant; 0=no damage to plant)
Summary of the method: as §1

[7] = tested on: Alopecurus myosuroides (ALOMY); test: Post-emergence herbicidal activity, glasshouse pot test; format: in vivo; settings: Alopecurus myosuroides, rate 500 g/ha, evaluated after 14 or 15 days, read-out: Post-emergence activity, ALOMY (100=total damage to plant; 0=no damage to plant)
Summary of the method: (§2)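 Post-emergence spray on 10-day-old potted plants (sterilised standard soil, controlled glasshouse conditions); spray solution from technical compound in acetone with Emulsogen EL, N-methylpyrrolidone, dipropylene glycol monomethyl ether and X-77. Rated 14–15 d later, 0 = no damage, 100 = total damage.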

[8] = tested on: Avena fatua (AVEFA); test: as above; format: in vivo; settings: Avena fatua, rate 500 g/ha, evaluated after 14 or 15 days, read-out: Post-emergence activity, AVEFA (100=total damage to plant; 0=no damage to plant)
Summary of the method: as §2

[9] = tested on: Digitaria sanguinalis (DIGSA); test: as above; format: in vivo; settings: Digitaria sanguinalis, rate 500 g/ha, evaluated after 14 or 15 days, read-out: Post-emergence activity, DIGSA (100=total damage to plant; 0=no damage to plant)
Summary of the method: as §2

[10] = tested on: Echinochloa crus-galli (ECHCG); test: as above; format: in vivo; settings: Echinochloa crus-galli, rate 500 g/ha, evaluated after 14 or 15 days, read-out: Post-emergence activity, ECHCG (100=total damage to plant; 0=no damage to plant)
Summary of the method: as §2

[11] = tested on: Lolium perenne (LOLPE); test: as above; format: in vivo; settings: Lolium perenne, rate 500 g/ha, evaluated after 14 or 15 days, read-out: Post-emergence activity, LOLPE (100=total damage to plant; 0=no damage to plant)
Summary of the method: as §2

[12] = tested on: Setaria faberi (SETFA); test: as above; format: in vivo; settings: Setaria faberi, rate 500 g/ha, evaluated after 14 or 15 days, read-out: Post-emergence activity, SETFA (100=total damage to plant; 0=no damage to plant)
Summary of the method: as §2

Compound `CCc1cc(C)cc(CC)c1C1=C(O)CC(CC(C)[S+]([O-])CC)CC1=O` (stereo not shown) [Compound T29, 2-(2,6-diethyl-4-methylphenyl)-5-[2-(ethylsulfinyl)propyl]cyclohexane-1,3-dione] has a pest or weed control at 500 g/ha [1] of 100%, a pest or weed control at 500 g/ha [2] of 90% and a pest or weed control at 500 g/ha [3] of 100%. The pest or weed control at 500 g/ha [4] was 100%, the pest or weed control at 500 g/ha [5] was 100% and the pest or weed control at 500 g/ha [6] was 100%. For the same compound, the pest or weed control at 500 g/ha [7] was 90%, the pest or weed control at 500 g/ha [8] was 100% and the pest or weed control at 500 g/ha [9] was 100%. It also gave a pest or weed control at 500 g/ha [10] of 100%, a pest or weed control at 500 g/ha [11] of 90% and a pest or weed control at 500 g/ha [12] of 90%. The melting point was 58 to 61 °C.

Reference: patent US8084649B2, “Herbicides” (Syngenta Crop Protection, inc., priority 2007, dated 2011)
